According to patent US20200087258A1, “INHIBITOR OF CITRATE TRANSPORTER AND THEIR USE IN THERAPY” (Eternygen GmbH, priority 2017, published 2020):

Legend:
Type in all cases: cell-based
INDY [1] = molecular target: T1, INDY (Homo sapiens, UniProt Q86YT5); experiment: 14C-citrate uptake in HepG2 cells endogenously expressing INDY (NaCT); settings: endogenous INDY
Summary of the method: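 HepG2 cells, which express INDY endogenously, were preincubated with compound for 5 min at 37 °C in pH 6.5 Na+ citrate uptake buffer. 14C-citrate ([…]) was then added for 90 min at 37 °C. After washing and NaOH lysis, uptake was measured by scintillation counting, with 5 mM citrate as positive control.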

INDY [2] = molecular target: T1, INDY; experiment: 14C-citrate uptake in HEK293 cells overexpressing recombinant human INDY (NaCT); set-up: expressed in transfected cells; host or cells: HEK293
Summary of the method: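 HEK293 cells overexpressing human NaCT, 50,000/well, preincubated 5-30 min at 37 °C with compound in pH 6.5 Na+ buffer. 14C-citrate ([…]) uptake then ran 20-90 min at 37 °C, followed by ice-cold washes, NaOH lysis and scintillation counting. 10 mM citrate served as positive control.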

GLT-1 = molecular target: T2, GLT-1 (Homo sapiens, UniProt P43004); experiment: 3H-glutamate uptake counter assay in HEK293 cells overexpressing human GLT-1
T2 construct: host or cells: HEK293 (virus made in GP293 packaging cells)
Procedure: The compound was obtained by screening of a library containing more than 50,000 lead-like compounds and fragments. The library was tested using a functional citrate uptake assay with HEK293 cells overexpressing recombinant human INDY. The following hit confirmation was conducted in the same assay system. To confirm the activity of selected compounds on the target INDY another cell assay was conducted. In this assay system citrate uptake was measured using HepG2 cells which endogenously express INDY. Furthermore selectivity of selected compounds was tested for two other transporters in different assay systems. The first transporter was the glutamate transporter GLT-1 tested in a glutamate uptake assays using HEK293 cells overexpressing recombinant human GLT-1. The second transporter was the glucose transporter GLUT1 tested in a glucose uptake assay using Huh-7 cells which endogenously express GLUT1. Compounds were considered to be selective with an at least 5-fold higher activity for INDY than for the other two transporters.
Cells were maintained in cell medium using cell culture grade flasks (CellSTACK Corning, 500 cm2 dishes or T175 depending on cell number). The selection antibiotic and G418 (800 μg/ml) was added during cultivation but not for seeding into assay plates. For splitting, cells were washed with PBS (w/o Ca2+, Mg2+, phenol red) and detached with Trypsin/EDTA. Throughout cultivation cells were kept sub-confluent. Detached cells (50,000 cells/well) were seeded in 96-well plates (white, clear bottom from Corning #655098) and incubated over night before usage in the assay. The following media were used. For HEK293 cells expressing INDY MEM (PAA)+10% FCS+1×P/S+2 mM L-Gln; for HEK293 cells expressing GLT-1 DMEM (Gibco)+10% FCS+400 µg/ml G418; for Huh7 cells DMEM (Gibco)+10% FCS+2 mM L-Gin (+1×P/S); for HepG2 cells MEM (PAA, Cat # E15-024)+10% FCS+2 mM L-Gin+1×NEAA+1 mM Na-Pyruvat
The following assay buffers for the particular uptake reaction were used. Citrate uptake buffer: 120 mM NaCl, 5.4 mM KCl, 0.8 mM MgSO4, 5 mM glucose, 1.8 mM CaCl2, 25 mM Hepes, 25 mM MES, pH 6.5. Glutamate uptake buffer: HBSS, 1 mM CaCl2, 1 mM MgCl2, 20 mM Hepes pH 7.4. Glucose uptake buffer: 25 mM Hepes+25 mM MES pH 7.4, 120 mM NaCl, 5.4 mM KCl, 1.8 mM CaCl2, 0.8 mM MgSO4.
As a counter assay, Glutamate uptake by the GLT-1 transporter was used. The principle of the assay is to measure the uptake of ^3H labelled glutamate into HEK cells, which overexpress human GLT-1.
The generation of a GLT-1 cell line was performed as follows: human GLT11 isoform sv1 cDNA (Origene # RC223924) was cloned into vector pFB-Neo-CMV-hGLT1 using QIAfilter Plasmid Midi Kit (Qiagen). Virus was generated in GP293 packaging cells (transfection of plasmid with Lipofectamine 2000+OptiMEM). For transfection into HEK cells GP293, supernatant containing virus was passed through a 0.45 micron sterile filter and DEAE-dextran was added at […] final concentration. The solution was used to transfect HEK293 cells at 37° C., 8.5% CO2. After 24 h selection marker G418 at 400 μg/ml was added and cultivation medium performed in DMEM 10% FBS.
The assay was performed in a 96-well format using repeated washing steps, cell lysis and addition of scintillation fluid. Assay buffer was HBSS, 1 mM CaCl2, 1 mM MgCl2, […] pH 7.4. Cells were seeded into white clear-bottom 96-well plates (50,000/well) in the presence of Poly-D-Lysine and incubated at 37° C. for 16-24 hours. Subsequently the plates were washed once with assay buffer using automated washing/LS 405 Selectors, BioTek ending with a buffer volume of 40 μl. Then 5 μl of compound solution in assay buffer was added and incubated for 20 min at 37° C. in cell incubator, HERA cell Heraeus. Afterwards 10 μl of substrate 3H-Glu (3 nM) were added and incubated for another 20 min at 37° C. in cell incubator, HERAcell. Then the plates were washed once with 200 μl cold assay buffer and 150 μl scintillation fluid was added. […]

T1 sequence (Q86YT5 whole entry): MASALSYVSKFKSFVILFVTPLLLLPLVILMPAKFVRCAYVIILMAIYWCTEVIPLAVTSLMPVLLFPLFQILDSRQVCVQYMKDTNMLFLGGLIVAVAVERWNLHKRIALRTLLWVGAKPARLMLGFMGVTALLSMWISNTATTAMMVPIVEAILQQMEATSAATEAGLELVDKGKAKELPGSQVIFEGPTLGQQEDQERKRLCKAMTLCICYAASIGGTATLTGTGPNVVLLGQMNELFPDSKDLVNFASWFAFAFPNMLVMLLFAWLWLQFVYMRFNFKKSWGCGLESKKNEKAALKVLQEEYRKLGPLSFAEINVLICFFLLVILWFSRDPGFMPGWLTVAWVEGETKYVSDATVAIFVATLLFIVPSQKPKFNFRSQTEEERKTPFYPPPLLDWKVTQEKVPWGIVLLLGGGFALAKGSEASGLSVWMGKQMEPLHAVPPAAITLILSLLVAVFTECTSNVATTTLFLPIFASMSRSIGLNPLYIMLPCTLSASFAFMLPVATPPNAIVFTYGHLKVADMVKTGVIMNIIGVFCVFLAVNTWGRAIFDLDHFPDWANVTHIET
T2 sequence (P43004 whole entry): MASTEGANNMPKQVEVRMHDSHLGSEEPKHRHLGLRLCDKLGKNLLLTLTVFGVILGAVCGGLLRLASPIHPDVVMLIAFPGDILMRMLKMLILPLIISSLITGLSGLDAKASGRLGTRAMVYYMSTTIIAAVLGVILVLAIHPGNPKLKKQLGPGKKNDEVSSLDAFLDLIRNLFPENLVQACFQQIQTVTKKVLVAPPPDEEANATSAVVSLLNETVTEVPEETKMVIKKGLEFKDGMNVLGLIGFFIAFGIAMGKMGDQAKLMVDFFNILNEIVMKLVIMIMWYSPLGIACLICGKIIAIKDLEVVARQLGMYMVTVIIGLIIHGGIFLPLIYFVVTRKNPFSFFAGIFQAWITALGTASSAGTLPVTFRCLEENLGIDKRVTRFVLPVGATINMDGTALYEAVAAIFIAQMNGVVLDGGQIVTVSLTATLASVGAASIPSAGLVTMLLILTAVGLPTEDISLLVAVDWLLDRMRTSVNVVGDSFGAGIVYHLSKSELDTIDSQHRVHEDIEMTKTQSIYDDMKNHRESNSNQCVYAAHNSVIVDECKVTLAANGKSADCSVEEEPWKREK

| IC50 (INDY [1]) [nM] | IC50 (INDY [2]) [nM] | IC50 (GLT-1) [µM] | Compound |
| --- | --- | --- | --- |
| 400 | 500 | > 20 | O=C(NCc1ccccc1F)C1CCN(S(=O)(=O)c2ccc(OC(F)(F)F)cc2)CC1 [Example 29, N-[(2-fluorophenyl)methyl]-1-[4-(trifluoromethoxy)benzenesulfonyl]piperidine-4-carboxamide] |
| 1100 | 800 | > 20 | CC(C)(C)c1ccc(S(=O)(=O)N2CCC(C(=O)NCc3ccccn3)CC2)cc1 [Example 37, 1-(4-tert-butylbenzenesulfonyl)-N-[(pyridin-2-yl)methyl]piperidine-4-carboxamide] |
| 9000 | 6400 | > 20 | CC(C)(C)c1ccc(S(=O)(=O)N2CC(C(=O)NCc3ccccc3Cl)C2)cc1 [Example 49, 1-(4-tert-butylbenzenesulfonyl)-N-[(2-chlorophenyl)methyl]azetidine-3-carboxamide] |
| 700 | 1300 | > 20 | Cc1cc(C)cc(S(=O)(=O)N2CCC(C(=O)NCc3ccccn3)CC2)c1 [Example 60, 1-(3,5-dimethylbenzenesulfonyl)-N-[(pyridin-2-yl)methyl]piperidine-4-carboxamide] |
| 1600 | 2400 | > 20 | O=C(NCc1ccccn1)C1CCN(S(=O)(=O)c2ccc(Cl)cc2Cl)CC1 [Example 73, 1-(2,4-dichlorobenzenesulfonyl)-N-[(pyridin-2-yl)methyl]pipendine-4-carboxamide] |
| 100 | 200 | > 20 | O=C(NCc1ccccc1O)C1CCN(S(=O)(=O)c2cc(Cl)cc(Cl)c2)CC1 [Example 79, 1-(3,5-dichlorobenzenesulfonyl)-N-[(2-hydroxyphenyl)methyl]pipendine-4-carboxamide] |
| 100 | 400 | > 20 | Nc1ccccc1CNC(=O)C1CCN(S(=O)(=O)c2cc(Cl)cc(Cl)c2)CC1 [Example 81, N-[(2-aminophenyl)methyl]-1-(3,5-dichlorobenzenesulfonyl)pipendine-4-carboxamide] |
| 600 | 1100 | > 20 | O=C(NCc1ccccc1O)C1CCN(S(=O)(=O)c2ccc(C(F)(F)F)cc2)CC1 [Example 82, N-[(2-hydroxyphenyl)methyl]-1-[4-(trifluoromethyl)benzenesulfonyl]pipendine-4-carboxamide] |
| 800 | 1000 | > 20 | [N-]=[N+]=NCc1ccccc1CNC(=O)C1CCN(S(=O)(=O)c2cc(Cl)cc(Cl)c2)CC1 [Example 92, N-([2-(azidomethyl)phenyl]methyl)-1-(3,5-dichlorobenzenesulfonyl)piperidine-4-carboxamide] |
| 2300 | 5900 | – | O=C(NCc1ccccn1)C1CCN(S(=O)(=O)c2cc(Cl)cc(C3COC3)c2)CC1 [Example 116, 1-[3-chloro-5-(oxetan-3-yl)benzenesulfonyl]-N-[(pyridin-2-yl)methyl]piperidine-4-carboxamide] |
| 500 | 800 | – | O=C(NCc1cccc(CO)c1)C1CCN(S(=O)(=O)c2cc(Cl)cc(Cl)c2)CC1 [Example 117, 1-(3,5-dichlorobenzenesulfonyl)-N-{[3-(hydroxymethyl)phenyl]methyl}piperidine-4-carboxamide] |
| 4000 | 5700 | – | COC(=O)c1cccc(CNC(=O)C2CCN(S(=O)(=O)c3cc(Cl)cc(Cl)c3)CC2)c1 [Example 118, methyl 3-({[1-(3,5-dichlorobenzenesulfonyl)piperidin-4-yl]formamido}methyl)benzoate] |
| 2800 | 7500 | – | O=C(NCc1ccccn1)C1CN(S(=O)(=O)c2cc(Cl)cc(Cl)c2)C1 [Example 120, 1-(3,5-dichlorobenzenesulfonyl)-N-[(pyridin-2-yl)methyl]azetidine-3-carboxamide] |
| 1300 | 2000 | – | O=C(NCc1ccc(O)cc1)C1CCN(S(=O)(=O)c2cc(Cl)cc(Cl)c2)CC1 [Example 123, 1-(3,5-dichlorobenzenesulfonyl)-N-[(4-hydroxyphenyl)methyl]piperidine-4-carboxamide] |
| 900 | 1800 | – | Nc1ccc(CNC(=O)C2CCN(S(=O)(=O)c3cc(Cl)cc(Cl)c3)CC2)cc1 [Example 124, N-[(4-aminophenyl)methyl]-1-(3,5-dichlorobenzenesulfonyl)piperidine-4-carboxamide] |
| 500 | 800 | – | O=C(NCc1ccccn1)C1CCN(S(=O)(=O)c2ccc(C3(C(F)(F)F)CC3)cc2)CC1 [Example 125, N-[(pyridin-2-yl)methyl]-1-{4-[1-(trifluoromethyl)cyclopropyl]benzenesulfonyl}piperidine-4-carboxamide] |
| 400 | 500 | – | O=C(NCc1ccccn1)C1CCN(S(=O)(=O)c2cc(Br)cc(C(F)(F)F)c2)CC1 [Example 126, 1-[3-bromo-5-(trifluoromethyl)benzenesulfonyl]-N-[(pyridin-2-yl)methyl]piperidine-4-carboxamide] |
| 1200 | 3200 | – | O=C(NCc1ccccn1)C1CCN(S(=O)(=O)c2cc(C(F)(F)F)cc(C(F)(F)F)c2)CC1 [Example 127, 1-[3,5-bis(trifluoromethyl)benzenesulfonyl]-N-[(pyridin-2-yl)methyl]piperidine-4-carboxamide] |
| 7400 | 1600 | – | O=C(NCc1ccccn1)C1CCN(S(=O)(=O)c2ccc(C3CCCC3)cc2)CC1 [Example 129, 1-(4-cyclopentylbenzenesulfonyl)-N-[(pyridin-2-yl)methyl]piperidine-4-carboxamide] |
| 500 | 700 | – | O=C(NCc1ccccn1)C1CCN(S(=O)(=O)c2cc(Cl)cc(C(F)(F)F)c2)CC1 [Example 130, 1-[3-chloro-5-(trifluoromethyl)benzenesulfonyl]-N-[(pyridin-2-yl)methyl]piperidine-4-carboxamide] |
| 4700 | 6100 | – | O=C(NCc1ccccn1)C1CCN(S(=O)(=O)c2ccc(C3CCCCC3)cc2)CC1 [Example 131, 1-(4-cyclohexylbenzenesulfonyl)-N-[(pyridin-2-yl)methyl]piperidine-4-carboxamide] |
| 700 | 2000 | – | O=C(NCc1ccc(F)cc1)C1CCN(S(=O)(=O)c2cc(Cl)cc(Cl)c2)CC1 [Example 132, 1-(3,5-dichlorobenzenesulfonyl)-N-[(4-fluorophenyl)methyl]piperidine-4-carboxamide] |
